Measurements reported in publication PMC3047591 (Inorganic chemistry, 2011).

What was measured:
[1] = molecular target: T1, His93Gly sperm whale myoglobin (H93G Mb) (Physeter macrocephalus, UniProt P02185, H94G); assay: electronic absorption and MCD spectroscopy of mixed CHA/Im adduct; assay type: binding
[2] = molecular target: T1, His93Gly sperm whale myoglobin (H93G Mb); assay: electronic absorption and MCD spectroscopy, titration; assay type: binding

T1 sequence (P02185 2-154 H94G): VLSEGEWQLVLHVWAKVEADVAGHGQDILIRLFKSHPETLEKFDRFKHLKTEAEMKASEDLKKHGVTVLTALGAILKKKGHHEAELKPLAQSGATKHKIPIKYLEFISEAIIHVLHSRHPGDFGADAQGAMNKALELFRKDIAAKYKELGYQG

Row | Compound | electronic absorption and MCD spectroscopy of mixed CHA/Im adduct [1] | electronic absorption and MCD spectroscopy, titration [2]
1 | c1c[nH]cn1 [Im, imidazole] | the final spectrum is that of a nearly homogeneous Im/CHA mixed-ligand adduct | 
2 | NC1CCCCC1 [CHA, cyclohexylamine] |  | ferric CHA-ligated H93G Mb is a six-coordinate high-spin H93G Mb derivative with the CHA amine group as the proximal donor
